Data taken from patent US20190119645A1, “GENERATION OF ADULT-LIKE HEART MUSCLE FROM HUMAN PLURIPOTENT STEM CELLS” (The Johns Hopkins University, priority 2015, published 2019).

Assays:
hiPSC-derived neurons = assay: Patch-clamp recording of spontaneous synaptic events in hiPSC-derived neurons; type: cell-based, human; settings: 10 μM; hiPSC-derived neurons in slices and in cultures; applied with Bic
Experimental: (§1) Transverse brain slices of 350 μm thickness were prepared at 8 weeks after differentiated hiPSC cells injection using a vibratome (Leica VT1200S). Slices were incubated in artificial cerebrospinal fluid (ACSF) containing (in mM): NaCl 125, KCl 2.5, MgSO4 1, NaH2PO4 1.25, NaHCO3 26, CaCl2 2, and D-glucose 10. Slices were maintained in ACSF and continuously bubbled with 95% O2 and 5% CO2, first at 34° C. for 30 min, and then at room temperature. A single slice was transferred into a submerged recording chamber and perfused constantly with carbogen-equilibrated ACSF at a rate of 2 ml/min Injected human neurons expressing RFP were visualized under a 40× water immersion objective by fluorescence and DIC optics (Carl Zeiss, Germany). […] Resting membrane potential (RMP) was recorded in current clamp mode at 0 pA immediately after establishing whole-cell configuration. Series resistance (Rseries) and input resistance (Rin) were calculated from a 5 mV pulse and monitored throughout the experiment. […]
(§2) For voltageclamp experiments, the membrane potential was typically held at −70 mV. […] Data were acquired by PatchMaster software (HEKA Elektronik, Lambrech, Germany) Na^+ and K^+ currents and action potentials were analyzed using Clampfit 10.5 software (Molecular devices, Palo Alto, Calif., USA). Spontaneous synaptic events were analyzed using MiniAnalysis software (Synaptosoft, Decatur, Ga., USA). […]

[1] = system: functional sodium and potassium channels in hiPSC-neurons; assay: Voltage-clamp recording of Na+ and K+ currents in hiPSC-derived neurons; type: cell-based, human; settings: depolarizing voltage steps; hiPSC-neurons after 8 weeks of maturation
Experimental: as §1, §2

| Compound | spontaneous synaptic events (hiPSC-derived neurons) | voltage-dependent inward and outward currents, sensitivity [1] |
| --- | --- | --- |
| N#Cc1cc2c(cc1[N+](=O)[O-])=NC(=O)C(=O)N=2 [CNQX, 6-Cyano-7-nitroquinoxaline-2,3-dione] | blocked | – |
| CC[N+](CC)(CC)CC [TEA] | – | selectively sensitive |
